Measured values from publication PMC9303458 (Chemmedchem, 2022).
Like-named read-outs stand apart in the source and are kept apart here. Values belong to the compound of their own block, whether it stands above or below them.

Tests used:
[1] = molecular target: T1, fatty acid amide hydrolase (FAAH), rat brain homogenate (Rattus norvegicus, UniProt P97612); format: biochemical; settings: for inhibition at 10 µM: read-out: FAAH inhibition at 10 μM, 10 μM, highest test concentration; for FAAH inhibition at 10 μM: highest test concentration
T1 sequence (P97612 1-579): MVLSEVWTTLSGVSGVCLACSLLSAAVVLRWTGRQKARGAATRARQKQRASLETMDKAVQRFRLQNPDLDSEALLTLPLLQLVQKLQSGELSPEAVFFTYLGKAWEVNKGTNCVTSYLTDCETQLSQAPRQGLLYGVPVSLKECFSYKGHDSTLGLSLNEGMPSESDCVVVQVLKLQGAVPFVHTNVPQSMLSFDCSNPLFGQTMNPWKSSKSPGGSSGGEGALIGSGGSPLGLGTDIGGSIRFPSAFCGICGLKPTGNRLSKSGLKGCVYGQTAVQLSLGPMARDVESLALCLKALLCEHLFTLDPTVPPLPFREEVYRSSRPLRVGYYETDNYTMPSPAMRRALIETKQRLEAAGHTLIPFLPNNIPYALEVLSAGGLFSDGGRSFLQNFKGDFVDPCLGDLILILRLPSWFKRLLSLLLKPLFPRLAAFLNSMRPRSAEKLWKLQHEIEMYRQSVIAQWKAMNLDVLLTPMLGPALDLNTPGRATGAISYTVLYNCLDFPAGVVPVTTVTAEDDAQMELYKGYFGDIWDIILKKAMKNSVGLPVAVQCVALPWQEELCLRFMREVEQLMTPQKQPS

human recombinant MAGL = molecular target: T2, human recombinant MAGL (Homo sapiens, UniProt Q99685); format: biochemical; settings: for MAGL inhibition at 10 μM: highest test concentration
T2 sequence (Q99685 1-303): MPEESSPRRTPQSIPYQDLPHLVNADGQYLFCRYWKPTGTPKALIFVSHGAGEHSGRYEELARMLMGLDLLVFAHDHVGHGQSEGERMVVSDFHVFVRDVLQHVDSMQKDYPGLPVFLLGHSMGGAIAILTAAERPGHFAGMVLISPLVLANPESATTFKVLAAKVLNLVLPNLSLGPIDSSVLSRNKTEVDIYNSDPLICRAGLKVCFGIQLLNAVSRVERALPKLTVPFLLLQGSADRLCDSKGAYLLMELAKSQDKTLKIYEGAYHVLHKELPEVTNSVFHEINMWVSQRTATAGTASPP

[2] = Metabolic stability in porcine liver S9 fraction; format: in vitro ADME; settings: for Porcine liver S9 fraction Stability: percent of parent remaining after 30 min at 37 °C, mean ± SD, n=3
[3] = Metabolic stability in porcine blood plasma; format: in vitro ADME; settings: for Porcine blood plasma Stability: percent of parent remaining after 30 min at 37 °C, mean ± SD, n=3
[4] = Chemical stability in aqueous solution; format: physicochemical; settings: percent of parent remaining after 60 min at 37 °C; mean ± SD, n=3
[5] = molecular target: butyrylcholinesterase (BuChE) (Equus caballus, UniProt P81908); experiment: Inhibition of BuChE, release of benzoic acid from benzoylcholine; format: biochemical, horse
Chain of butyrylcholinesterase (BuChE) (P81908 whole entry): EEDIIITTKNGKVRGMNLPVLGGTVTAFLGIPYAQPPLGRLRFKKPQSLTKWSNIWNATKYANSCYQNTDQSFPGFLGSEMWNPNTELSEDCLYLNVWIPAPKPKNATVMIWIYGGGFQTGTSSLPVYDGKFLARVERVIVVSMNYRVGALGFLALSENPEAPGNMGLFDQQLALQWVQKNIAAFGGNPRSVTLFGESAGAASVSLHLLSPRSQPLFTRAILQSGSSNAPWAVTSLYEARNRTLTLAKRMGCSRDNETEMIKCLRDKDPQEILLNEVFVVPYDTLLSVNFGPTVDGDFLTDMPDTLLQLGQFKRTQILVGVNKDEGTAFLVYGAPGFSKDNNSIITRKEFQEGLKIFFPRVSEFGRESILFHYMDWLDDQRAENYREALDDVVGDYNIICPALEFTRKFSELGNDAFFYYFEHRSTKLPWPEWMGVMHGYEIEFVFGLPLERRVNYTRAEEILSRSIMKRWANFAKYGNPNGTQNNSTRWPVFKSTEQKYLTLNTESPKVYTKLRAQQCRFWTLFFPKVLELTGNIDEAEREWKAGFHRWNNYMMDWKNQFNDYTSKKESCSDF

[6] = dogs, peroral application; cited from earlier work
Caco‐2 cell monolayer [7] = experiment: Caco‐2 cell permeability
[8] = rats, peroral application; cited from earlier work
[9] = Thermodynamic aqueous solubility; format: physicochemical; settings: PBS pH 7.4, shaken 20 h, 20 °C; mean ± SD
Caco‐2 cell permeability = settings: human, Caco-2, pH 7.4
Caco‐2 cell monolayer [10] = settings: Caco‐2, comparable conditions; cited from earlier work

inhibition at 10 µM [1]: ~30%
inhibition at 10 µM (human recombinant MAGL; read-out: MAGL inhibition at 10 μM): ~30%
SMILES: CN(CCCCCn1ccc2ccc(F)cc21)C(=O)OC(C(F)(F)F)C(F)(F)F [Compound 35, 1,1,1,3,3,3‐Hexafluoropropan‐2‐yl N‐methyl‐N‐[5‐(6‐fluoroindol‐1‐yl)pentyl]carbamate]

IC50 [1]: 2800 nM
SMILES: O=C(OC(C(F)(F)F)C(F)(F)F)N1CCC(CCCCn2ccc3ccc(F)cc32)CC1 [Compound 32]

Degradation in porcine liver homogenate ([2]; percent degraded under the conditions of the stability assay): approximately 90%
SMILES: CCOC(=O)C1=C[C@@H](OC(CC)CC)[C@H](NC(C)=O)[C@@H](N)C1 [oseltamivir, reference compound]

IC50 [1]: > 10000 nM
SMILES: O=C(OC(C(F)(F)F)C(F)(F)F)N1CCC(CCn2nnc3ccccc32)CC1 [Compound 104]

SMILES: O=C(OC(C(F)(F)F)C(F)(F)F)N1CCC(CCn2ccc3ccc(F)cc32)CC1 [Compound 24, 1,1,1,3,3,3‐Hexafluoropropan‐2‐yl 4‐[2‐(6‐fluoroindol‐1‐yl)ethyl]piperidine‐1‐carboxylate]
Porcine blood plasma Stability [3]: 86±7%
IC50 [1]: 1000 nM
PBS‐buffer pH 7.4 Stability [4]: 93±1%
Porcine liver S9 fraction Stability [2]: 68±7%

IC50 [1]: 2500 nM
SMILES: O=C(OC(C(F)(F)F)C(F)(F)F)N1CCC(CCn2ccc3c(F)cccc32)CC1 [Compound 69]

SMILES: O=C(OC(C(F)(F)F)C(F)(F)F)N1CCC(Cn2ccc3ccc(F)cc32)CC1 [Compound 20, 1,1,1,3,3,3‐Hexafluoropropan‐2‐yl 4‐[(6‐fluoroindol‐1‐yl)methyl]piperidine‐1‐carboxylate]
Porcine blood plasma Stability [3]: 82±6%
FAAH inhibition at 10 μM [1]: no inhibitory activity
PBS‐buffer pH 7.4 Stability [4]: > 95%
Porcine liver S9 fraction Stability [2]: 75±3%

IC50 [1]: 7500 nM
SMILES: O=C(OC(C(F)(F)F)C(F)(F)F)N1CCC(CCn2ccc3cc(Cl)ccc32)CC1 [Compound 78]

FAAH inhibition at 10 μM [1]: no inhibitory activity
SMILES: O=C(OC(C(F)(F)F)C(F)(F)F)N1CCC(Cn2ccc3c(F)cccc32)CC1 [Compound 48]

SMILES: O=C(NCCCCCn1ccc2ccc(F)cc21)OC(C(F)(F)F)C(F)(F)F [Compound 11, 1,1,1,3,3,3‐Hexafluoropropan‐2‐yl N‐[5‐(6‐fluoroindol‐1‐yl)pentyl]carbamate]
Porcine blood plasma Stability [3]: 86±9%
IC50 [1]: 740 nM
PBS‐buffer pH 7.4 Stability [4]: 95±4%
IC50 [5]: 3500 nM
Porcine liver S9 fraction Stability [2]: 72±5%

FAAH inhibition at 10 μM [1]: inactive
MAGL inhibition at 10 μM (human recombinant MAGL): inactive
SMILES: CCN(CCCCCn1ccc2ccc(F)cc21)C(=O)OC(C(F)(F)F)C(F)(F)F [Compound 38, 1,1,1,3,3,3‐Hexafluoropropan‐2‐yl N‐ethyl‐N‐[5‐(6‐fluoroindol‐1‐yl)pentyl]carbamate]

SMILES: O=C(OC(C(F)(F)F)C(F)(F)F)N1CCN(Cc2ccc(C(F)(F)F)cc2N2CCCC2)CC1 [ABX‐1431, reference compound]
Porcine blood plasma Stability [3]: 95±2%
Bioavailability [6]: more than 60%
PBS‐buffer pH 7.4 Stability [4]: 90±5%
Permeability coefficient pH 7.4 (Caco‐2 cell monolayer [7]; Caco‐2, 10 μM apical, 2 h, 37 °C, mean ± SD, n=3, n.d.: no permeation detectable): could not be detected
Porcine liver S9 fraction Stability [2]: 81±3%
Bioavailability [8]: more than 60%
Aqueous solubility pH 7.4 [9]: very low solubility

IC50 [1]: 1000 nM
SMILES: O=C(NCCCCCCCn1ccc2ccc(F)cc21)OC(C(F)(F)F)C(F)(F)F [Compound 15]

Hydrolysis in porcine blood plasma ([3]; under the conditions of the stability assay): almost quantitatively hydrolyzed
SMILES: CCCc1nc(C(C)(C)O)c(C(=O)OCc2oc(=O)oc2C)n1Cc1ccc(-c2ccccc2-c2nnn[nH]2)cc1 [olmesartan medoxomil, reference compound]

IC50 [1]: > 10000 nM
inhibition at 10 µM [1]: ~25%
SMILES: Cc1ccc2c(ccn2CC2CCN(C(=O)OC(C(F)(F)F)C(F)(F)F)CC2)c1 [Compound 57]

IC50 [1]: 2800 nM
SMILES: O=C(OC(C(F)(F)F)C(F)(F)F)N1CCC(CCn2ccc3cc(F)ccc32)CC1 [Compound 72]

FAAH inhibition at 10 μM [1]: no inhibitory activity
SMILES: O=C(OC(C(F)(F)F)C(F)(F)F)N1CCC(Cn2ccc3cccc(F)c32)CC1 [Compound 54]

FAAH inhibition at 10 μM [1]: inactive
MAGL inhibition at 10 μM (human recombinant MAGL): inactive
SMILES: CC(C)N(CCCCCn1ccc2ccc(F)cc21)C(=O)OC(C(F)(F)F)C(F)(F)F [Compound 40]

IC50 [1]: > 10000 nM
inhibition at 10 µM [1]: ~25%
SMILES: COc1ccc2c(ccn2CC2CCN(C(=O)OC(C(F)(F)F)C(F)(F)F)CC2)c1 [Compound 60]

SMILES: O=C(OC(C(F)(F)F)C(F)(F)F)N1CCC(CCn2cnc3ccccc32)CC1 [Compound 101, 1,1,1,3,3,3‐Hexafluoropropan‐2‐yl 4‐[2‐(benzimidazol‐1‐yl)ethyl]piperidine‐1‐carboxylate]
Porcine blood plasma Stability [3]: 93±5%
IC50 [1]: 1000 nM
PBS‐buffer pH 7.4 Stability [4]: > 95%
Papp A→B at 2 h, 10 µM (Caco‐2 cell permeability): 12.6 ± 1 ×10⁻⁶ cm/s
Porcine liver S9 fraction Stability [2]: 82±7%
Aqueous solubility pH 7.4 [9]: 6.1±0.5 μg/mL

MAGL inhibition at 10 μM (human recombinant MAGL): no inhibition
SMILES: O=C(NCCCCCn1ccc2ccc(F)cc21)Oc1ccccc1 [Compound 6, phenyl N‐[5‐(6‐fluoroindol‐1‐yl)pentyl]carbamate]

IC50 [1]: > 10000 nM
inhibition at 10 µM [1]: ~25%
SMILES: N#Cc1ccc2c(ccn2CC2CCN(C(=O)OC(C(F)(F)F)C(F)(F)F)CC2)c1 [Compound 63]

IC50 [1]: 1200 nM
SMILES: O=C(OC(C(F)(F)F)C(F)(F)F)N1CCC(CCn2ccc3cccc(F)c32)CC1 [Compound 75]

IC50 [1]: > 10000 nM
SMILES: N#Cc1ccc2c(ccn2CCC2CCN(C(=O)OC(C(F)(F)F)C(F)(F)F)CC2)c1 [Compound 87]

FAAH inhibition at 10 μM [1]: inactive
MAGL inhibition at 10 μM (human recombinant MAGL): inactive
SMILES: O=C(OC(C(F)(F)F)C(F)(F)F)N(CCCCCn1ccc2ccc(F)cc21)C1CC1 [Compound 42]

FAAH inhibition at 10 μM [1]: ineffective
SMILES: O=C(OC(C(F)(F)F)C(F)(F)F)N1CCC(Cn2cnc3ccccc32)CC1 [Compound 122]

IC50 [1]: 2100 nM
SMILES: O=C(OC(C(F)(F)F)C(F)(F)F)N1CCC(CCn2ccc3ccccc32)CC1 [Compound 66]

Recovery of test compound at the end of the Caco‐2 experiment (Caco‐2 cell monolayer [7]; sum of apical and basolateral compartments after 2 h): quantitative
SMILES: COc1ccc2c(c1)c(CC(=O)O)c(C)n2C(=O)c1ccc(Cl)cc1 [indomethacin, reference compound]
Permeability coefficient, literature value (Caco‐2 cell monolayer [10]): 2.04e-05 cm/s

FAAH inhibition at 10 μM [1]: no inhibitory activity
SMILES: O=C(OC(C(F)(F)F)C(F)(F)F)N1CCC(Cn2ccc3ccccc32)CC1 [Compound 45]

IC50 [1]: 6300 nM
SMILES: O=C(OC(C(F)(F)F)C(F)(F)F)N1CCC(CCCn2ccc3ccc(F)cc32)CC1 [Compound 28]

IC50 [1]: > 10000 nM
SMILES: Cc1ccc2c(ccn2CCC2CCN(C(=O)OC(C(F)(F)F)C(F)(F)F)CC2)c1 [Compound 81]

SMILES: O=C(NCCCCCCn1ccc2ccc(F)cc21)OC(C(F)(F)F)C(F)(F)F [Compound 13, 1,1,1,3,3,3‐Hexafluoropropan‐2‐yl N‐[6‐(6‐fluoroindol‐1‐yl)hexyl]carbamate]
Porcine blood plasma Stability [3]: 79±8%
IC50 [1]: 770 nM
PBS‐buffer pH 7.4 Stability [4]: 95±3%
IC50 [5]: 1800 nM
Porcine liver S9 fraction Stability [2]: 69±5%

SMILES: NC(=O)c1cccc(-c2cccc(OC(=O)NC3CCCCC3)c2)c1 [URB597, reference compound]
PBS‐buffer pH 7.4 Stability [4]: > 95%
Porcine liver S9 fraction Stability [2]: 80±4%

SMILES: O=C(OC(C(F)(F)F)C(F)(F)F)N1CCC(Cn2ccc3cccnc32)CC1 [Compound 125, 1,1,1,3,3,3‐Hexafluoropropan‐2‐yl 4‐[(7‐azaindol‐1‐yl)methyl]piperidine‐1‐carboxylate]
Porcine blood plasma Stability [3]: 79±6%
FAAH inhibition at 10 μM [1]: ineffective
PBS‐buffer pH 7.4 Stability [4]: 92±7%
Papp A→B at 2 h, 10 µM (Caco‐2 cell permeability): 10 ×10⁻⁶ cm/s
Porcine liver S9 fraction Stability [2]: 75±8%

IC50 [1]: 2600 nM
Decrease of activity towards FAAH relative to lead structure 24 (factor) ([1]; ratio of IC50 values): ~2.5
Decrease of activity towards MAGL relative to lead structure 24 (factor) (human recombinant MAGL; ratio of IC50 values): about 1.5
SMILES: O=C(OC(C(F)(F)F)C(F)(F)F)N1CCN(CCn2ccc3ccc(F)cc32)CC1 [Compound 92, 1,1,1,3,3,3‐Hexafluoropropan‐2‐yl 4‐[2‐(6‐fluoroindol‐1‐yl)ethyl]piperazine‐1‐carboxylate]

IC50 [1]: 8300 nM
SMILES: COc1ccc2c(ccn2CCC2CCN(C(=O)OC(C(F)(F)F)C(F)(F)F)CC2)c1 [Compound 84]
